Measurements reported in ChEMBL document CHEMBL1152147, “Design at the atomic level: design of biaryloxazolidinones as potent orally active antibiotics” (Bioorg Med Chem Lett, 2008).
In brackets after ≈: the same amount, converted by molar mass.

Key:
Enterococcus faecalis [1] = test: Antimicrobial activity against Linezolid-resistant Enterococcus faecalis P5 by NCCLS method; type: functional
Streptococcus pyogenes [2] = test: Antimicrobial activity against erm (B) expressing Streptococcus pyogenes Msr 610 by NCCLS method; type: functional
Haemophilus influenzae [3] = test: Antimicrobial activity against Haemophilus influenzae 895 (AcrB-KO) by NCCLS method; type: functional
Streptococcus pneumoniae [4] = test: Antimicrobial activity against mef (A) expressing Streptococcus pneumoniae 02J1175 by NCCLS method; type: functional
Escherichia coli = test: Inhibition of Escherichia coli translation; type: functional, organism-based
Haemophilus influenzae [5] = test: Antimicrobial activity against Haemophilus influenzae parent strain RD1 by NCCLS method; type: functional
Enterococcus faecalis [6] = test: Antimicrobial activity against Linezolid-resistant Enterococcus faecalis ATCC 29212-P5 by NCCLS method; type: functional
Streptococcus pneumoniae [7] = test: Antimicrobial activity against erm (B) expressing Streptococcus pneumoniae 02J1258 + L4 by NCCLS method; type: functional
Streptococcus pyogenes [8] = test: Antimicrobial activity against erm (B) Streptococcus pyogenes msr610 by NCCLS method; type: functional
Haemophilus influenzae [9] = test: Antimicrobial activity against Haemophilus influenzae by NCCLS method; type: functional
Enterococcus faecalis [10] = test: Antimicrobial activity against vanB+ expressing Enterococcus faecalis 1069 by NCCLS method; type: functional
Haemophilus influenzae [11] = test: Antimicrobial activity against Haemophilus influenzae A1950 by NCCLS method; type: functional
Enterococcus faecium = test: Antimicrobial activity against vanA+ expressing Enterococcus faecium A6349 by NCCLS method
Staphylococcus aureus = test: Antimicrobial activity against methicillin-resistant Staphylococcus aureus 67-0 by NCCLS method; type: functional
Haemophilus influenzae [12] = test: Antimicrobial activity against Haemophilus influenzae 1100 by NCCLS method; type: functional

Row | SMILES | MIC (Enterococcus faecalis [1]) | MIC (Streptococcus pyogenes [2]) | MIC (Haemophilus influenzae [3]) | MIC (Streptococcus pneumoniae [4]) | IC50 (Escherichia coli) | MIC (Haemophilus influenzae [5]) | MIC (Enterococcus faecalis [6]) | MIC (Streptococcus pneumoniae [7]) | MIC (Streptococcus pyogenes [8]) | MIC (Haemophilus influenzae [9]) | MIC (Enterococcus faecalis [10]) | MIC (Haemophilus influenzae [11]) | MIC (Enterococcus faecium) | MIC (Staphylococcus aureus) | MIC (Haemophilus influenzae [12])
1 | CC(=O)NC[C@H]1CN(c2ccc(-c3ccc(CNCc4ccco4)cc3)c(F)c2)C(=O)O1 | 4 µg/mL (≈ 9.14 µM) | 0.25 µg/mL (≈ 0.571 µM) | 0.5 µg/mL (≈ 1.14 µM) | 0.25 µg/mL (≈ 0.571 µM) | 40 nM | 4 µg/mL (≈ 9.14 µM) |  |  |  |  |  |  |  |  | 
2 | CC(=O)NC[C@H]1CN(c2ccc(-c3ccc(CNCC#N)cc3)c(F)c2)C(=O)O1 |  |  |  | 0.25 µg/mL (≈ 0.631 µM) |  | 4 µg/mL (≈ 10.1 µM) | 1 µg/mL (≈ 2.52 µM) | 0.25 µg/mL | 0.25 µg/mL (≈ 0.631 µM) | 8 µg/mL (≈ 20.2 µM) | ≤ 0.25 µg/mL | 8 µg/mL (≈ 20.2 µM) | 1 µg/mL (≈ 2.52 µM) | 0.5 µg/mL (≈ 1.26 µM) | 4 µg/mL (≈ 10.1 µM)
3 | CC(=O)NC[C@H]1CN(c2ccc(-c3ccc(CNCc4cnoc4)cc3)c(F)c2)C(=O)O1 |  |  |  | 0.125 µg/mL (≈ 0.285 µM) |  | 2 µg/mL (≈ 4.56 µM) | 2 µg/mL (≈ 4.56 µM) | 0.125 µg/mL | 0.125 µg/mL (≈ 0.285 µM) | 4 µg/mL (≈ 9.12 µM) | 0.5 µg/mL (≈ 1.14 µM) | 8 µg/mL (≈ 18.2 µM) | 1 µg/mL (≈ 2.28 µM) |  | 1 µg/mL (≈ 2.28 µM)
4 | CC(=O)NC[C@H]1CN(c2ccc(-c3ccc(CNCc4ccncc4)cc3)c(F)c2)C(=O)O1 | 2 µg/mL (≈ 4.46 µM) | 0.5 µg/mL (≈ 1.11 µM) | 0.5 µg/mL (≈ 1.11 µM) | 0.25 µg/mL (≈ 0.557 µM) | 50 nM | 8 µg/mL (≈ 17.8 µM) |  |  |  |  |  |  |  |  | 
5 | CC(=O)NC[C@H]1CN(c2ccc(-c3ccc(CNCc4ccnc5ccccc45)cc3)c(F)c2)C(=O)O1 | 2 µg/mL (≈ 4.01 µM) | 0.5 µg/mL (≈ 1 µM) | 1 µg/mL (≈ 2.01 µM) | 0.5 µg/mL (≈ 1 µM) | < 20 nM | 8 µg/mL (≈ 16 µM) |  |  |  |  |  |  |  |  | 
6 | CC(=O)NC[C@H]1CN(c2ccc(-c3ccc(Cn4cnnn4)cc3)c(F)c2)C(=O)O1 |  |  |  | 0.25 µg/mL (≈ 0.609 µM) |  | 2 µg/mL (≈ 4.87 µM) | 1 µg/mL (≈ 2.44 µM) | 0.5 µg/mL | 0.5 µg/mL (≈ 1.22 µM) | 4 µg/mL (≈ 9.75 µM) | 0.5 µg/mL (≈ 1.22 µM) | 8 µg/mL (≈ 19.5 µM) | 1 µg/mL (≈ 2.44 µM) | 1 µg/mL (≈ 2.44 µM) | 2 µg/mL (≈ 4.87 µM)
7 | CC(=O)NC[C@H]1CN(c2ccc(-c3ccc(Cn4ccnn4)cc3)c(F)c2)C(=O)O1 |  |  |  | 0.5 µg/mL (≈ 1.22 µM) |  | 4 µg/mL (≈ 9.77 µM) | 1 µg/mL (≈ 2.44 µM) | 0.25 µg/mL | 0.5 µg/mL (≈ 1.22 µM) | 4 µg/mL (≈ 9.77 µM) | 0.5 µg/mL (≈ 1.22 µM) | 8 µg/mL (≈ 19.5 µM) | 1 µg/mL (≈ 2.44 µM) | 0.5 µg/mL (≈ 1.22 µM) | 2 µg/mL (≈ 4.88 µM)
8 | CC(=O)NC[C@H]1CN(c2ccc(N3CCOCC3)c(F)c2)C(=O)O1 [LINEZOLID] | 32 µg/mL (≈ 94.9 µM) | 1 µg/mL (≈ 2.96 µM) | 8 µg/mL (≈ 23.7 µM) |  | 4600 nM | 16 µg/mL (≈ 47.4 µM) | 32 µg/mL (≈ 94.9 µM) |  | 1 µg/mL (≈ 2.96 µM) | 32 µg/mL (≈ 94.9 µM) |  | 32 µg/mL (≈ 94.9 µM) |  |  | 16 µg/mL (≈ 47.4 µM)
9 | CC(=O)NC[C@H]1CN(c2ccc(-c3ccc(CNCc4cnn[nH]4)cc3)c(F)c2)C(=O)O1 [RADEZOLID] |  |  |  | 0.25 µg/mL (≈ 0.57 µM) |  | 0.5 µg/mL (≈ 1.14 µM) | 1 µg/mL (≈ 2.28 µM) | 0.25 µg/mL | 0.125 µg/mL (≈ 0.285 µM) | 1 µg/mL (≈ 2.28 µM) | ≤ 0.25 µg/mL | 1 µg/mL (≈ 2.28 µM) | 0.5 µg/mL (≈ 1.14 µM) | 1 µg/mL (≈ 2.28 µM) | 0.25 µg/mL (≈ 0.57 µM)
10 | CC(=O)NC[C@H]1CN(c2ccc(-c3ccc(CNCCCF)cc3)c(F)c2)C(=O)O1 |  |  |  | 0.125 µg/mL (≈ 0.299 µM) |  | 2 µg/mL (≈ 4.79 µM) | 2 µg/mL (≈ 4.79 µM) | 0.125 µg/mL | 0.125 µg/mL (≈ 0.299 µM) | 4 µg/mL (≈ 9.58 µM) | 0.5 µg/mL (≈ 1.2 µM) | 4 µg/mL (≈ 9.58 µM) | 1 µg/mL (≈ 2.4 µM) | 1 µg/mL (≈ 2.4 µM) | 2 µg/mL (≈ 4.79 µM)
11 | CC(=O)NC[C@H]1CN(c2ccc(-c3ccc(Cn4ncnn4)cc3)c(F)c2)C(=O)O1 |  |  |  | 0.125 µg/mL (≈ 0.305 µM) |  | 4 µg/mL (≈ 9.75 µM) | 1 µg/mL (≈ 2.44 µM) | 0.25 µg/mL | 0.125 µg/mL (≈ 0.305 µM) | 8 µg/mL (≈ 19.5 µM) | ≤ 0.25 µg/mL | 8 µg/mL (≈ 19.5 µM) | 0.5 µg/mL (≈ 1.22 µM) | 0.5 µg/mL (≈ 1.22 µM) | 4 µg/mL (≈ 9.75 µM)
